Experimental data as given in ChEMBL document CHEMBL1201862, “PubChem BioAssay data set” (2004).
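These data come from cells grown in 96-well plates and exposed to compound for 48 hours at five concentrations. The concentration for 50% growth inhibition is given as GI50.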 The source made the active and inactive calls. Rule as the data show it: active = GI50 up to about 1.1 µM and inactive = higher.

Experiments:
Assay in all cases: NCI-60 cell line screen, 48 h
HCT-15 = system: HCT-15
OVCAR-4 = system: OVCAR-4
CAKI-1 = system: CAKI-1
Malme-3M = system: Malme-3M
U-251 = system: U-251
M14 = system: M14
HOP-92 = system: HOP-92
A549 = system: A549
SK-MEL-5 = system: SK-MEL-5
NCI/ADR-RES = system: NCI/ADR-RES
SK-MEL-28 = system: SK-MEL-28
SK-MEL-2 = system: SK-MEL-2
CCRF-CEM = system: CCRF-CEM
HCT-116 = system: HCT-116
MDA-N = system: MDA-N
K562 = system: K562
UACC-257 = system: UACC-257
OVCAR-5 = system: OVCAR-5
SK-OV-3 = system: SK-OV-3
LOX IMVI = system: LOX IMVI

Structure (SMILES)	GI50 (HCT-15)	GI50 (OVCAR-4)	GI50 (CAKI-1)	GI50 (Malme-3M)	GI50 (U-251)	GI50 (M14)	GI50 (HOP-92)	GI50 (A549)	GI50 (SK-MEL-5)	GI50 (NCI/ADR-RES)	GI50 (SK-MEL-28)	GI50 (SK-MEL-2)	GI50 (CCRF-CEM)	GI50 (HCT-116)	GI50 (MDA-N)	GI50 (K562)	GI50 (UACC-257)	GI50 (OVCAR-5)	GI50 (SK-OV-3)	GI50 (LOX IMVI)
O=C(O)c1ccc(CI)cc1	16 µM	14.3 µM (inactive)	13.7 µM (inactive)	10.6 µM (inactive)	7.85 µM (inactive)	17.4 µM (inactive)	15.8 µM (inactive)	17.6 µM (inactive)	17 µM (inactive)	16.1 µM (inactive)	14.3 µM (inactive)	17.9 µM (inactive)	9.57 µM (inactive)	14.5 µM (inactive)	15.5 µM (inactive)	23.7 µM (inactive)	19.3 µM (inactive)	18.7 µM (inactive)	25.4 µM (inactive)	–
Cc1nnc(CC#N)n1NC(=O)CC#N	> 100 µM	–	> 100 µM (inactive)	> 100 µM (inactive)	> 100 µM (inactive)	> 100 µM (inactive)	> 100 µM (inactive)	> 100 µM (inactive)	> 100 µM (inactive)	> 100 µM (inactive)	> 100 µM (inactive)	> 100 µM (inactive)	> 100 µM (inactive)	> 100 µM (inactive)	> 100 µM (inactive)	> 100 µM (inactive)	> 100 µM (inactive)	> 100 µM (inactive)	> 100 µM (inactive)	> 100 µM (inactive)
CCCCNC(=S)Nc1nc(C(=O)NNC(=S)Nc2ccccc2)cs1	> 100 µM	> 100 µM (inactive)	> 100 µM (inactive)	–	21.1 µM (inactive)	82.8 µM (inactive)	21.4 µM (inactive)	> 100 µM (inactive)	40.4 µM (inactive)	> 100 µM (inactive)	–	44.9 µM (inactive)	> 100 µM (inactive)	> 100 µM (inactive)	> 100 µM (inactive)	–	> 100 µM (inactive)	> 100 µM (inactive)	> 100 µM (inactive)	–
Oc1c(Br)cc(/C=C/c2cccc(/C=C/c3cc(Br)c(O)c(Br)c3)n2)cc1Br	6.22 µM	13.3 µM (inactive)	11.5 µM (inactive)	–	9.06 µM (inactive)	13.8 µM (inactive)	12.1 µM (inactive)	3.72 µM (inactive)	7.06 µM (inactive)	21.6 µM (inactive)	12.1 µM (inactive)	4.89 µM (inactive)	–	8.81 µM (inactive)	18.8 µM (inactive)	3.3 µM (inactive)	15.7 µM (inactive)	17.6 µM (inactive)	20.6 µM (inactive)	13.7 µM (inactive)
C=CCN1C[C@H](C)N([C@H](c2ccc(C(=O)N(CC)CCO)cc2)c2cccc(OC)c2)C[C@H]1C	> 100 µM	> 100 µM (inactive)	> 100 µM (inactive)	> 100 µM (inactive)	56 µM (inactive)	> 100 µM (inactive)	13.6 µM (inactive)	> 100 µM (inactive)	54.7 µM (inactive)	> 100 µM (inactive)	> 100 µM (inactive)	> 100 µM (inactive)	–	> 100 µM (inactive)	> 100 µM (inactive)	–	47 µM (inactive)	> 100 µM (inactive)	71.8 µM (inactive)	–
